How the values were obtained:
[1] = system: normal cord blood CD34+ cells engrafted in Rag2−/−γc−/− mice; assay: Normal HSPC in vivo model (cord blood CD34+ cell engrafted mice); set-up: species or system mouse; settings: 10 mg/kg versus vehicle
Method: All animal studies were performed in accordance with UCSD and NIH-equivalent ethical guidelines and were approved by the Institutional Animal Care and Use Committee (IACUC protocol # S06015). For all in vivo experiments, animals of both genders were utilized. […] At 7-28 weeks post-transplant (7-36 weeks old), mice were euthanized, and peripheral blood and single cell suspensions of hematopoietic organs were analyzed for human cell engraftment by FACS. […] Treatment was initiated at 8 weeks post-transplant, and at 10 weeks post-transplant, mice were euthanized, and peripheral blood and single cell suspensions of hematopoietic organs were analyzed for human cell engraftment by FACS. […]
Flow cytometric analysis was performed on single cell suspensions from each hematopoietic tissue essentially as for primary patient samples, and frequencies of total live human CD45+ cells, CD45+ CD34+ CD38− Lin− (stem) cells, CD45+ CD34+ CD38+ Lin− (progenitor) cells, and CD45+/CD33+ (leukemic blasts) were determined in each tissue. […]

[2] = Villa et al., Org Lett 2012; cited from earlier work

For `CC[C@H](OC)[C@@H](C)[C@H]1O[C@@H]1[C@@H](O)[C@H](C)/C=C/C=C(\C)[C@H]1OC(=O)C[C@H](O)CC[C@@](C)(O)[C@@H](OC(C)=O)/C=C/[C@@H]1C` (stereo in doubt) [Formula 17S-FD-895, 17S-FD-895], the “total human hematopoietic cell or HSPC survival” value [1] is given as “no effect” and the “activity over FD-895” value [2] is given as 25 fold.

Reference: patent US10675267B2, “Methods for detection and eradication of myeloid leukemia stem cells” (priority 2015, dated 2020)
